# In US11491155B2, “Salt of a pyrimido[6,1-A]isoquinolin-4-one compound” (VERONA PHARMA PLC, priority 2015, dated 2022):
# Read-outs that look alike come from different tables or passages of the source.
# Assays:
# [1] = Solubility of RPL554 salts in saline solutions, water and aqueous buffer solutions at 25° C. (HPLC); format: physicochemical; conditions: for solubility at 24 h: thermodynamic from solid
# Method: The behaviour of salts of RPL554 were examined under the following conditions: • Phosphate buffered to pH 3.5 in saline, 0.9% w/w at 25° C. • Acetate buffered to pH 4.5 in saline, 0.9% w/w at 25° C. • Citro-Phosphate buffered to pH 4.5 in saline, 0.9% w/w at 25° C. • Phosphate buffered to pH 6.5 in saline, 0.9% w/w at 25° C. • Saline, 0.7, 0.9 and 1.1% w/w at 25° C. • Deionised water at 25° C.
# RPL554 salts and RPL554, ca 50 mg, were suspended in the various aqueous media, 1 ml, with agitation at the specified temperatures for 24 hours. The solids were isolated and dried in vacuo at 45° C. The retained filtrates were examined by HPLC.
# Additional RPL554 methane sulfonate salt, ca 50 mg, was charged to the water mixtures at 25° C. and 37.5° C. in order to afford a suspension. In all other cases, suspensions were obtained.
# The solubility of the RPL554 was determined by HPLC using a single point calibration and is expressed as RPL554 and not as the salt and are detailed in Table 6 and Table 7 for the various conditions utilised.
# [2] = Intrinsic dissolution of compressed tablet, pH 7.0, 37° C. (Sirius inForm); format: physicochemical; conditions: pH 7.0, 0.15 M NaCl, 37° C.
# Method: The dissolution assay (pH-dependent sample dissolution) was investigated using the Sirius inForm.
# Dissolution of a compressed tablet of the compound was monitored in a pH 7.0 aqueous dissolution experiment (0.15 M NaCl) at 37° C. using UV-absorption spectroscopy in 2 hour experiments. A tablet with a diameter of 3 mm, requiring approximate weights of 10 mg was compressed under a weight of 100 kg load force. Only one face of the tablet was exposed to the dissolution medium, which contained a 0.01 M acetate/phosphate buffer system to minimise perturbation of the experimental pH from dissolution of the drug.
# Stirring of the solution was continuous and at a constant rate of 100 rpm. The absorption data was converted to absolute sample weights using previously determined, pH-dependent, molar extinction coefficients. An appropriate wavelength range was chosen to ensure that spectroscopic data with an absorption value of <1.3 was analysed, avoiding erroneous dissolution results due to saturation of the UV light source.
# [3] = Primary particle size analysis by laser light diffraction (Mastersizer 2000); format: physicochemical; conditions: micronised, mean n=3
# Method: A Mastersizer 2000 fitted with a Scirocco 2000 dry powder dispersion unit (Malvern Instruments Ltd, UK) was used to analyse the primary particle size of the micronised RPL554 and salt variants. The salts (50 mg) were automatically sampled via a vibrating feed control at a feeder rate of 60% and dispersed in compressed air at a pressure of 3 bar.
# [4] = Solubility of RPL554 and salts in pMDI propellant systems; format: physicochemical
# Method: Quantitative assessment of the solubility of RPL554 and salt variants in the propellant systems of selected pMDI formulations (three replicates of each formulation) was performed. pMDIs were directly coupled to an adaptor fitted with a 0.20 μm filter unit connected, in series to a 21 G needle, which was inserted via a rubber septum, into a cooled multi-dose glass vial. A 19 G filter needle was inserted through the septum to aid evaporation of propellant from the vial. Prior to the filtration process the vial was cooled in a mixture of dry ice and acetone to ensure that the pressure within the vial was reduced in order to facilitate collection of the output from the pMDI. Ten consecutive actuations of the pMDI were fired through the filter and collected in the vial. Between actuations the canister was shaken for approximately 10 seconds. The pMDI unit was weighed before and after the filtering procedure. The filtrate was stored at room temperature and allowed to evaporate to dryness.
# Samples were recovered by carefully rinsing the inside of the vials with 1 mL of recovery solution before transfer to HPLC vials for analysis. The estimated % of RPL554 solubilised within the canister was calculated from the starting mass of RPL554 within the canisters, which in turn was calculated using the theoretical molecular weight values of the RPL554 free base and salt variants shown in Table 13. The theoretical molecular weight estimates of the salts were provided by Verona.
# [5] = RPL554 content and content uniformity of 1% w/w lactose powder blends; format: physicochemical; conditions: for Measured Blend Content (% Theoretical): 1% w/w RPL554 variant: lactose powder blend, expressed as RPL554 base; for **Adjusted RPL554 Content per capsule: per 20 mg capsule of 1% w/w lactose blend, adjusted for measured blend content (% theoretical), as RPL554 base
# Method: Batches (approximately 5 g) of 1% w/w RPL554 free base or salt variants: lactose blends were prepared. In brief, the RPL554 free base or salt plus a small quantity of lactose was passed through a 38 μm sieve. The sieved material plus the remaining lactose was mixed in a glass mortar prior to transfer to a stainless steel screw cap jar and further mixing (10 minutes at 46 rpm) conducted using a Turbula blender. The composition of the dry powder blend was 0.05 g API and 4.95 g lactose.
# In order to determine the content uniformity of the blends, aliquots (approx. 20 mg) of powder were sampled from each blend, accurately weighed, and diluted to volume in 10 mL volumetric flasks with diluent. The flasks were sonicated for 3 minutes before samples were transferred to HPLC vials for analysis.
# [6] = Aerosol performance of DPI formulations (Cyclohaler, NGI); format: physicochemical; conditions: for †Measured Mass of 1% w/w Blend Delivered per capsule / ††RPL554 Emitted (μg) per capsule (B): Cyclohaler; for †Measured Mass of 1% w/w Blend Delivered per capsule: 5 capsules containing 20 mg powder blend, mass from weight change of capsule-loaded device; for ††RPL554 Emitted (μg) per capsule (B): NGI, mass determined from HPLC analysis of recovered samples; for ††RPL554 Emitted (μg) per capsule (B) / Calculated RPL554 Content (μg) per capsule (A): as RPL554 base; for Calculated RPL554 Content (μg) per capsule (A): calculated from delivered blend mass and measured blend content
# Method: Capsules were hand filled with 20 mg of the 1% w/w RPL554 free base or salt variants: lactose blends, i.e. 200 μg salt per capsule, the fill weight of each capsule was recorded. Due to differences in the molecular weights of the RPL554 salt forms, the amount of RPL554 emitted per actuation varied as a function of molecular weight. The formulations were prepared with no adjustment for differences in molecular weight of the salts.
# The powders were delivered via the Cyclohaler® DPI (PCH Pharmachemie, BV, The Netherlands). The Cyclohaler® DPI is a low resistance device and was operated at a flow rate of 90 L/min for 2.7 seconds. The cut off diameters for the NGI collection stages were calculated for the 90 L/min flow rate using the NGI User Guide (MSP Corporation, 2008).
# The ED, FPD and FPF were determined from inertial impaction tests performed following the deposition of 5 capsules of each formulation into the NGI. For each capsule tested the combined weight of the Cyclohaler® and capsule was determined before and after operation to check that the dose had been delivered. The NGI was fitted with a pre-separator for these determinations. The central cup of the pre-separator was filled with 15 mL of diluent. Following deposition, the solution was recovered in a 20 mL volumetric flask and made up to volume with diluent. RPL554 was quantitatively recovered from the device, induction port and each of the NGI collection stages with 10 mL of diluent.
# The volume of diluent used for each sample was selected to ensure RPL554 concentrations were above the limit of quantitation.
# [7] = Physico-chemical characteristics of salt candidates: solubility in water, pH of aqueous suspension/solution, form post water maturation
# [8] = listed as benzenesulfonate salt
# [9] = HFA 134a: 227: 10% Ethanol: 0.1% Tween
# [10] = in HFA 134, listed as Free Base
# [11] = in HFA 134 with Ethanol/Tween, listed as Free Base
smiles,measurement,setting,value
"COc1cc2c(cc1OC)-c1c/c(=N\c3c(C)cc(C)cc3C)n(CCNC(N)=O)c(=O)n1CC2 [Benzenesulfonate, RPL554 benzenesulfonate]",solubility at 24 h,"[1]; 0.7% w/w saline, saline or isotonic, 24 hours, read-out: Solubility as RPL554 (mg/ml) in 0.7 w/w % Saline",2.27 mg/mL
same,solubility at 24 h,"[1]; 0.9% w/w saline, saline or isotonic, 24 hours, read-out: Solubility as RPL554 (mg/ml) in 0.9 w/w % Saline",2.74 mg/mL
same,solubility at 24 h,"[1]; 1.1% w/w saline, saline or isotonic, 24 hours, read-out: Solubility as RPL554 (mg/ml) in 1.1 w/w % Saline",2.94 mg/mL
same,solubility at 24 h,"[1]; acetate buffer in 0.9% w/w saline, pH 4.5, aqueous buffer, in saline 0.9% w/w, read-out: Solubility as RPL554 (mg/ml) in buffer solution pH 4.5, Acetate",1.39 mg/mL
same,solubility at 24 h,"[1]; citro-phosphate buffer in 0.9% w/w saline, pH 4.5, aqueous buffer, in saline 0.9% w/w, read-out: Solubility as RPL554 (mg/ml) in buffer solution pH 4.5, Citro-phosphate",1.57 mg/mL
same,solubility at 24 h,"[1]; phosphate buffer in 0.9% w/w saline, pH 3.5, aqueous buffer, in saline 0.9% w/w, read-out: Solubility as RPL554 (mg/ml) in buffer solution pH 3.5, Phosphate",1.1 mg/mL
same,solubility at 24 h,"[1]; deionised water, 24 hours, read-out: Solubility as RPL554 (mg/ml) in Water",2.57 mg/mL
same,"Mass of salt (μg) dissolved after 2 hours, Average",[2]; [8],60.1 µg
same,"Mass of salt (μg) dissolved after 2 hours, Test 1",[2]; [8],50.0 µg
same,"Mass of salt (μg) dissolved after 2 hours, Test 2",[2]; [8],70.1 µg
same,D (0.1) (μm),[3],0.46 μm
same,D (0.5) (μm),[3],1.23 μm
same,D (0.9) (μm),[3],3.51 μm
same,Estimated RPL554 solubilised (%),[4]; in HFA 134 with Ethanol/Tween,4.03%
same,Estimated Solubilised RPL554 μg per 50 μL actuation,[4]; in HFA 134 with Ethanol/Tween,6.05 µg
same,Solubility RPL554,[4]; in HFA 134 with Ethanol/Tween,90.57 µg/g
same,Measured Blend Content (% Theoretical),[5],89.34 % Theoretical
same,**Adjusted RPL554 Content per capsule,[5],134.22 µg
same,†Measured Mass of 1% w/w Blend Delivered per capsule,[6],20.04 mg
same,††RPL554 Emitted (μg) per capsule (B),[6],87.57 µg
same,Calculated RPL554 Content (μg) per capsule (A),[6],134.49 µg
same,pH of aqueous suspension/solution,[7]; listed as Benzene sulfonic,3.43
same,solubility,[7]; water,1470 µg/mL
COc1cc2c(cc1OC)-c1c/c(=N\c3c(C)cc(C)cc3C)n(CCNC(N)=O)c(=O)n1CC2 [Naphthalene-2-sulfonate],Solubility as RPL554 (mg/ml) in 0.7 w/w % Saline,[1]; 24 hours,0.17 mg/mL
same,Solubility as RPL554 (mg/ml) in 0.9 w/w % Saline,[1]; 24 hours,0.09 mg/mL
same,Solubility as RPL554 (mg/ml) in 1.1 w/w % Saline,[1]; 24 hours,0.09 mg/mL
same,Solubility as RPL554 (mg/ml) in Water,"[1]; deionised water, 24 hours",0.13 mg/mL
"COc1cc2c(cc1OC)-c1c/c(=N\c3c(C)cc(C)cc3C)n(CCNC(N)=O)c(=O)n1CC2 [Phosphate, RPL554 phosphate]",Solubility as RPL554 (mg/ml) in 0.7 w/w % Saline,[1]; 24 hours,7.22 mg/mL
same,Solubility as RPL554 (mg/ml) in 0.9 w/w % Saline,[1]; 24 hours,4.78 mg/mL
same,Solubility as RPL554 (mg/ml) in 1.1 w/w % Saline,[1]; 24 hours,2.86 mg/mL
same,Solubility as RPL554 (mg/ml) in Water,"[1]; deionised water, 24 hours",41.84 mg/mL
same,pH of aqueous suspension/solution,[7]; listed as Phosphoric,3.08
"COc1cc2c(cc1OC)-c1c/c(=N\c3c(C)cc(C)cc3C)n(CCNC(N)=O)c(=O)n1CC2 [RPL554, 9,10-dimethoxy-2-(2,4,6-trimethylphenylimino)-3-(N-carbamoyl-2-aminoethyl)-3,4,6,7-tetrahydro-2H-pyrimido[6,1-a]isoquinolin-4-one]","Mass of salt (μg) dissolved after 2 hours, Average",[2]; listed as free base,13.5 µg
same,"Mass of salt (μg) dissolved after 2 hours, Test 1",[2]; listed as free base,10.0 µg
same,"Mass of salt (μg) dissolved after 2 hours, Test 2",[2]; listed as free base,17.0 µg
same,D (0.1) (μm),[3]; listed as Free base,0.58 μm
same,D (0.5) (μm),[3]; listed as Free base,1.37 μm
same,D (0.9) (μm),[3]; listed as Free base,3.00 μm
same,Estimated Solubilised RPL554 μg per 50 μL actuation,[4]; [9],1.06 µg
same,Solubility RPL554,[4]; [9],16.11 µg/g
same,Estimated RPL554 solubilised (%),"[4]; HFA 134a: 227: 10% Ethanol: 0.1% Tween, listed as Free base",0.53%
same,Solubility RPL554 (μg/g),"[4]; in HFA 134, BLQ = below limit of quantitation (0.06 μg/mL), listed as Free Base",BLQ
same,Calculated RPL554 solubilised (%),[4]; [10],BLQ
same,Calculated Solubilised RPL554 μg per 50 μL actuation,[4]; [10],BLQ
same,Estimated RPL554 solubilised (%),[4]; [11],0.56%
same,Estimated Solubilised RPL554 μg per 50 μL actuation,[4]; [11],1.12 µg
same,Solubility RPL554,[4]; [11],16.45 µg/g
same,Measured Blend Content (% Theoretical),[5]; listed as Free Base,96.44 % Theoretical
same,**Adjusted RPL554 Content per capsule,[5]; listed as Free Base,192.87 µg
same,†Measured Mass of 1% w/w Blend Delivered per capsule,[6]; listed as Free Base,20.12 mg
same,††RPL554 Emitted (μg) per capsule (B),[6]; listed as Free Base,133.59 µg
same,Calculated RPL554 Content (μg) per capsule (A),[6]; listed as Free Base,194.03 µg
COc1cc2c(cc1OC)-c1c/c(=N\c3c(C)cc(C)cc3C)n(CCNC(N)=O)c(=O)n1CC2 [Sulfuric - ethanol solution],pH of aqueous suspension/solution,[7],3.28
